The values that follow come from publication PMC4980083 (JCI insight, 2016).

In one experiment the test system is ER LBD. The experiment in a line: Fluorescence polarization competition binding, ER LBD. (In general: Polarisation of emitted light reports the rotation of a fluorescent probe.)
The test system of the next experiment is DU145 cells. Nature of the experiment: DU145 proliferation/viability. It is filed as cell-based, human. The conditions noted are these: up to 10 times the IC50 required to reduce AR-dependent proliferation; 3 days.
The target in experiment [1] is T1, endogenous full-length AR (Homo sapiens, UniProt P10275, T878A).
T1 sequence (P10275 1-920 T878A): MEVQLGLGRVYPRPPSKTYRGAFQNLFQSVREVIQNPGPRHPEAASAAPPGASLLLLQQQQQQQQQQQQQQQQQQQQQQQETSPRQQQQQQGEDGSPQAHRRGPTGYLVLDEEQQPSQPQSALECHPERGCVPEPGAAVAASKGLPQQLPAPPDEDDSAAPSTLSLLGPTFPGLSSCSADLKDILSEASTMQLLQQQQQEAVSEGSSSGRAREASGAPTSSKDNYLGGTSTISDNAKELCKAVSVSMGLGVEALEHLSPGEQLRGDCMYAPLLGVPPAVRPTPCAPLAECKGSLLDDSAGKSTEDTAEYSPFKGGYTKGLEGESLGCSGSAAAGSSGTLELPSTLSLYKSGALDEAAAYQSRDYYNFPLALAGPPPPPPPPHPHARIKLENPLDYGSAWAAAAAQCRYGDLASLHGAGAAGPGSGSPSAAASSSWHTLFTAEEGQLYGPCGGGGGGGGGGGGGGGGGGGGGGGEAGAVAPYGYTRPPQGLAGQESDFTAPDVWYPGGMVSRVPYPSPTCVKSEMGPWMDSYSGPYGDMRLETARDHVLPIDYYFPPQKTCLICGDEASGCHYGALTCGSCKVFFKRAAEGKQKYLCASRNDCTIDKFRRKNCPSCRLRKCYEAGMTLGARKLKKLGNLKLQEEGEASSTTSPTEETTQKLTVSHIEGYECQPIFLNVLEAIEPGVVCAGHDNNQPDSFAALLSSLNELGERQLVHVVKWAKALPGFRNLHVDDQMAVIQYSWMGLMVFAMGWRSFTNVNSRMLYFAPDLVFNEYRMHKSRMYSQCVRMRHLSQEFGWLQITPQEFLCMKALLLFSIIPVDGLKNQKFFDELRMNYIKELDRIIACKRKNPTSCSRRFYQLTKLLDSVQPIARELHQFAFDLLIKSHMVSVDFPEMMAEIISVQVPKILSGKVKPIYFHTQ
Nature of the experiment: Probasin luciferase activity in LNCaP cells, endogenous full-length AR. The conditions noted are these: I-EPI-002 2 μM, enzalutamide 5 μM; R1881 1 nM 24 hours.

In the next experiment the test system is PC3 cells. The experiment in a line: PC3 proliferation/viability. It is filed as cell-based, human. Conditions: up to 10 times the IC50 required to reduce AR-dependent proliferation; 3 days.
The target in experiment [2] is T1, endogenous full-length AR. The experiment in a line: AR transcriptional activity, PSA.
Experiment [3] concerns the target T2, full-length AR and AR-V567es (Homo sapiens, UniProt P10275).
T2 sequence (P10275 1-920): T1 sequence (P10275 1-920 T878A) with A878T
T2 sequence (P10275 with tags, fused parts or gaps limits assumed): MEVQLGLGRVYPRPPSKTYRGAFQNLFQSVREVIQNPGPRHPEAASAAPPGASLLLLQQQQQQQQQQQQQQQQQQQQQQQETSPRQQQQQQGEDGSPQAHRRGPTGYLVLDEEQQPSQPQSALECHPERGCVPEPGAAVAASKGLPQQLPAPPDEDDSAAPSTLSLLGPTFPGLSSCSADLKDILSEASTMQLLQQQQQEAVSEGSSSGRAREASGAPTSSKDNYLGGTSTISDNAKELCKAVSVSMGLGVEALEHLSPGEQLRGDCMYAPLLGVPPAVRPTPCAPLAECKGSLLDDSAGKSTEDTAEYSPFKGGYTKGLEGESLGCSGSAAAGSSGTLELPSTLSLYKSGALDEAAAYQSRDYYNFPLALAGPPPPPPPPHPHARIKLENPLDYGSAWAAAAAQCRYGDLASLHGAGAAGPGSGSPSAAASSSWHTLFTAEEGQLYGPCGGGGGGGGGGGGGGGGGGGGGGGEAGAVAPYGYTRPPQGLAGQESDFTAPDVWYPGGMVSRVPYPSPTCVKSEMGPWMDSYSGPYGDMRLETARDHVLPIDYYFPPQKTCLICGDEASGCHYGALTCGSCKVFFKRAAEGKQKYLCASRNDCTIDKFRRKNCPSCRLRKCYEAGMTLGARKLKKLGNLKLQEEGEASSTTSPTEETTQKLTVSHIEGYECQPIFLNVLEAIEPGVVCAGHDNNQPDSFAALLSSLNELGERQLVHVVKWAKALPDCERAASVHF
Nature of the experiment: Probasin luciferase activity in LNCaP cells, full-length AR and AR-V567es. The conditions noted are these: I-EPI-002 2 μM, enzalutamide 5 μM; presence or absence of androgen.

Residue numbers refer to the chain shown, from its start.

In the case of 15-IodoEPI002 [I-EPI-002], in the experiment on ER LBD, the “competition for ligand binding to ER LBD” value is listed as “did not prevent ligand-binding”. Besides, the “effect on proliferation or viability of DU145 cells” value with DU145 cells is listed as “no effect”. Also, in experiment [1], the “inhibition of probasin luciferase activity, full-length AR” value is recorded as “showed good inhibition”. Further, in the experiment with PC3 cells, the “effect on proliferation or viability of PC3 cells” value is reported as “no effect”. Further, the “potency relative to EPI-002” value in experiment [2] (cell-based functional assays) worked out at 10 times. For the same substance, the “inhibition of AR transcriptional activity with increasing concentrations of androgen” value in experiment [2] (increasing R1881, enzalutamide 5 μM, I-EPI-002 5 μM, EPI-002 25 μM) was “maintained effective inhibition”. Besides, the “inhibition of AR transcriptional activity” value in experiment [2] (~2 μM, R1881 1 nM) is 75%. Further, the “inhibition of probasin luciferase activity, full-length AR with V567es” value in experiment [3] was “showed good inhibition”.
